PMC7774306, “The Crystal Structures of Bacillithiol Disulfide Reductase Bdr (YpdA) Provide Structural and Functional Insight into a New Type of FAD-Containing NADPH-Dependent Oxidoreductase” (Biochemistry, 2020)

Assays:
Bc YpdA (Bdr) = target: T1, Bc YpdA (Bdr) (Bacillus cereus, UniProt Q81FS4); assay: NADPH consumption at […] nm; format: biochemical; conditions: anaerobic
T1 construct: gene BC_1495; expressed and purified; FAD-containing; biological homotetramer; tag details only in supplement
T1 sequence (Q81FS4 1-326): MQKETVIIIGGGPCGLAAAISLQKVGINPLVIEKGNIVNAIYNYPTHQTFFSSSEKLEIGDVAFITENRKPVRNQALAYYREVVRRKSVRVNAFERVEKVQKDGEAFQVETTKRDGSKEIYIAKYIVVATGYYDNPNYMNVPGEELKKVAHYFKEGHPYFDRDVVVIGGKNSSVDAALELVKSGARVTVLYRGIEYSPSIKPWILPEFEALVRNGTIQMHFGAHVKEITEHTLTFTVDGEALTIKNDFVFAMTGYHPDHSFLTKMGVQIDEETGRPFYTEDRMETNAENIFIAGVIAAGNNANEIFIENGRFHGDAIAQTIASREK

Sa YpdA (Bdr) [1] = target: T2, Sa YpdA (Bdr) (Staphylococcus aureus, UniProt A0A0H2WWS2); assay: NADPH consumption at […] nm; format: biochemical; conditions: NADPH as co-substrate; anaerobic
T2 construct: gene SACOL1520; expressed and purified; FAD-containing; biological homotetramer; tag details only in supplement
T2 sequence (A0A0H2WWS2 1-328): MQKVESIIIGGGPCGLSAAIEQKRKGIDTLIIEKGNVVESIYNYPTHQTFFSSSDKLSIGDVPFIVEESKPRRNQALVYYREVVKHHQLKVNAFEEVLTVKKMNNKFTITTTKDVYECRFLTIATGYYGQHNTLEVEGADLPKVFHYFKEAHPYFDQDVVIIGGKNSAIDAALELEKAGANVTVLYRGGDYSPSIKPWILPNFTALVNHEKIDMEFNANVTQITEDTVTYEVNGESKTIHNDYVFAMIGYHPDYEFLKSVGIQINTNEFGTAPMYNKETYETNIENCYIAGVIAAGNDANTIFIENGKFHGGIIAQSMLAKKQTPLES

Sa YpdA (Bdr) [2] = target: T2, Sa YpdA (Bdr); assay: X-ray crystallography; format: binding

N[C@@H](CSSC[C@H](N)C(=O)N[C@H]1[C@@H](O[C@@H](CC(=O)O)C(=O)O)O[C@H](CO)[C@@H](O)[C@@H]1O)C(=O)N[C@H]1[C@@H](O[C@@H](CC(=O)O)C(=O)O)O[C@H](CO)[C@@H](O)[C@@H]1O [BSSB]
NADPH consumption at 340 nm (Bc YpdA (Bdr); NADPH as co-substrate): YpdAs from Bc and Sa are both able to reduce BSSB | NADPH consumption at 340 nm (Sa YpdA (Bdr) [1]): YpdAs from Bc and Sa are both able to reduce BSSB

Cc1cc2nc3c(=O)[nH]c(=O)nc-3n(C[C@H](O)[C@H](O)[C@H](O)COP(=O)(O)OP(=O)(O)OC[C@H]3O[C@@H](n4cnc5c(N)ncnc54)[C@H](O)[C@@H]3O)c2cc1C [FAD]
X-ray crystallography (Sa YpdA (Bdr) [2]; bound cofactor, 2.9 and 3.1 A resolution): Monomer structure alignment of Bc and Sa YpdA, displaying the NADPH and FAD binding domains

NC(=O)C1=CN([C@@H]2O[C@H](COP(=O)(O)OP(=O)(O)OC[C@H]3O[C@@H](n4cnc5c(N)ncnc54)[C@H](OP(=O)(O)O)[C@@H]3O)[C@@H](O)[C@H]2O)C=CC1 [NADPH]
NADPH consumption at 340 nm (Bc YpdA (Bdr); BSSB as co-substrate): both Sa and Bc YpdAs can reduce BSSB with a rate of consumption of NADPH | X-ray crystallography (Sa YpdA (Bdr) [2]; NADPH not added, co-purified, bound in chains C, D and F, FAD present): we observed in both Sa YpdA structures electron density for bound NADPH
